One experiment relates to RtHYC3O. Nature of the experiment: LC-MS/MS product assay, non-linear regression. To be noted: 20 mM Tris-HCl pH 7.5, 30 °C, 10 min; air O2; FAD enzyme. The class given is biochemical, Rauvolfia tetraphylla.
The next experiment addresses T1, CrHYC3R (THAS3) (Catharanthus roseus, UniProt A0A1B1FHP1).
T1 sequence (A0A1B1FHP1 1-377): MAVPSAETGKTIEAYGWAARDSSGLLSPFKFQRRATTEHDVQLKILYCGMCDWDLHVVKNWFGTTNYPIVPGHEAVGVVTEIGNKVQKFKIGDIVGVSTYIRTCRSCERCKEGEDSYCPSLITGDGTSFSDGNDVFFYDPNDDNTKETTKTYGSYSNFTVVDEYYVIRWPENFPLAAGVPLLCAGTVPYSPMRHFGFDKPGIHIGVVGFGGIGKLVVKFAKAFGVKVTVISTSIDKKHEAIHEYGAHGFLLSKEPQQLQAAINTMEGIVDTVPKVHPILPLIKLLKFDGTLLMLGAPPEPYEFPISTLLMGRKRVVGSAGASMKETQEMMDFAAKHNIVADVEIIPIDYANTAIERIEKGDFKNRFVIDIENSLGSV
Kind of experiment: LC-MS/MS relative activity, yeast lysate. To be noted: 1 mM NADPH, 20 mM Tris-HCl pH 7.5, 30 °C, 4 h. The class given is biochemical.

The text below walks through data of article PMC12647599 (Nature Communications, 2025).

With `COC(=O)[C@H]1[C@H]2C[C@H]3c4[nH]c5ccccc5c4CCN3C[C@H]2CC[C@@H]1O` [rauwolscine], the Km (as a rule, the substrate concentration at which the rate is half of its maximum) in the experiment on RtHYC3O was found to be 1.15 µM. Turning to `COC(=O)[C@@H]1[C@H]2CC3=[N+](CCc4c3[nH]c3ccccc43)C[C@@H]2CC[C@@H]1O` [3-dehydro-yohimbine], at CrHYC3R (THAS3), the “LC-MS/MS relative activity, yeast lysate” value was “efficiently reduced 3-dehydro intermediates of yohimbine and heteroyohimbine types”.
